Measurements reported in patent publication US4241053A, “Novel nitrosourea compounds and process for preparing the same” (Tanabe Seiyaku Co., Ltd., priority 1978, dated 1980).

What was measured:
[1] = test system: lymphoid leukemia L-1210; conditions: tumor cells implanted intraperitoneally; cited from earlier work
[2] = test system: Leukemia L-1210; assay: Effect on the life span of mice implanted with leukemic cells of L-1210 (Method B); format: in vivo, mice (male BDF1); conditions: for ILS at 1.56 mg/kg / ILS at 6.25 mg/kg / ILS at 12.5 mg/kg / ILS at 25 mg/kg / ILS at 50 mg/kg / responders at 1.56 mg/kg / responders at 6.25 mg/kg / responders at 12.5 mg/kg / responders at 25 mg/kg / responders at 50 mg/kg: Mus musculus, L1210, ip, once a day for 5 days; for ILS at 1.56 mg/kg / ILS at 6.25 mg/kg / ILS at 12.5 mg/kg / ILS at 25 mg/kg / ILS at 50 mg/kg: 120 h, read-out: ILS (Increase in Life Span); for ILS at 1.56 mg/kg / responders at 1.56 mg/kg: 1.56 mg/kg/day i.p.; for ILS at 6.25 mg/kg / responders at 6.25 mg/kg: 6.25 mg/kg/day i.p.; for ILS at 12.5 mg/kg / responders at 12.5 mg/kg: 12.5 mg/kg/day i.p.; for ILS at 25 mg/kg / responders at 25 mg/kg: 25 mg/kg/day i.p.; for ILS at 50 mg/kg / responders at 50 mg/kg: 50 mg/kg/day i.p.; for responders at 1.56 mg/kg / responders at 6.25 mg/kg / responders at 12.5 mg/kg / responders at 25 mg/kg / responders at 50 mg/kg: 1440 h; for responders at 1.56 mg/kg: read-out: 60-day survivors (mice survived for 60 days/mice used); for responders at 6.25 mg/kg / responders at 12.5 mg/kg / responders at 25 mg/kg / responders at 50 mg/kg: read-out: 60-day survivors (mice survived for 60 days/mice used) (converted); for increase in the average life span: five consecutive days
Method: (B) Effect on the life span of mice implanted with leukemic cells of L-1210:
10^5 leukemic cells of L-1210 were inoculated intraperitoneally into a group of four or six male mice (BDF1 mice, body weight: 19-23 g). A test compound was dissolved in a physiological saline solution and administered intraperitoneally to the mice. The administration of the test compound was begun 24 hours after the inoculation of the leukemic cells and performed once a day for 5 days. The survival days of the treated mice were observed.
^a T = the mean survival days of the treated mice
C = the mean survival days of the untreated mice (control group of mice)
^b ILS(Increase in Life Span) =-
^c 60day survivors = the number of mice survived for 60 days/the

[3] = test system: Ehrlich ascites carcinoma; assay: Preventive effect against the growth of Ehrlich ascites tumor (Method A); format: in vivo, mice (female ICR); conditions: for inhibition in vivo at 0.19 mg/kg: 0.19 mg/kg/day i.p.; for inhibition in vivo at 0.39 mg/kg: 0.39 mg/kg/day i.p.; for inhibition in vivo at 0.78 mg/kg: 0.78 mg/kg/day i.p.; for inhibition in vivo at 3.12 mg/kg: 3.12 mg/kg/day i.p.; for inhibition in vivo at 12.5 mg/kg: 12.5 mg/kg/day i.p.; for inhibition in vivo at 50 mg/kg: 50 mg/kg/day i.p.; for minimal effective dose: minimum dose with 100% inhibition of ascites tumor, unit from dose column, read-out: MED (Minimum Effective Dose); for inhibition in vivo at 0.09 mg/kg: 0.09 mg/kg/day i.p.
Method: (§1) (A) Preventive effect against the growth of Ehrlich ascites tumor:
(§2) 10^6 tumor cells of Ehrlich ascites carcinoma were inoculated intraperitoneally into a group of five femal mice (ICR mice, body weight: 19-23 g). A test compound was dissolved in a physiological saline solution [In the case where CCNU was employed as the test compound, said compound was suspended in a physiological saline solution containing 0.1% NIKKOL HCO-60 (trademark; a surface active agent manufactured by Nikko Chemicals Co. Ltd.)] and administered intraperioneally to the mice. The administration of the test compound was begun 24 hours after the inoculation of the tumor cells and performed once a day for 5 days. The volume of ascites in the treated mice were measured after 7 days of the experiment.
(§3) ^a T = the average volume of ascites in the treated mice
(§4) C = the average volume of ascites in the untreated mice (control group of
(§5) 100% inhibition for the growth of Ehrlich ascites tumor in mice without
(§6) causing the death of said mice)
(§7) 100% inhibition for the growth of said ascites tumor)
(§8) ^e Therapeutic index = MTD/MED
(§9) *the number of mice died/the number of mice used

[4] = as above; format: in vivo, mice (female ICR); conditions: mouse, in vivo, ip; maximum dose with 100% inhibition of Ehrlich ascites tumor without causing death; unit from dose column; read-out: MTD (Maximum Tolerated Dose)
Method: as §1, §2, §3, §4, §5, §6, §7, §8, §9

[5] = test system: leukemic cells; conditions: cited from earlier work
[6] = 100 mg/kg/day i.p., once a day for 5 days
[7] = Mus musculus, Ehrlich, ip, 168 h, once a day for 5 days, read-out: Inhibition ratio
[8] = Mus musculus, Ehrlich, ip, 168 h

Compound	ILS at 6.25 mg/kg [2] [%]	ILS at 12.5 mg/kg [2] [%]	ILS at 25 mg/kg [2] [%]	ILS at 50 mg/kg [2] [%]	responders at 6.25 mg/kg [2] [%]	responders at 12.5 mg/kg [2] [%]	responders at 25 mg/kg [2] [%]	responders at 50 mg/kg [2] [%]	Toxic (number of mice died/number of mice used) [3, 6]	Therapeutic index (MTD/MED) [3]	inhibition in vivo at 0.19 mg/kg [3, 7] [%]	inhibition in vivo at 0.39 mg/kg [3, 7] [%]	inhibition in vivo at 0.78 mg/kg [3, 7] [%]	inhibition in vivo at 3.12 mg/kg [3, 7] [%]	inhibition in vivo at 12.5 mg/kg [3, 7] [%]	inhibition in vivo at 50 mg/kg [3, 7] [%]	minimal effective dose [3, 8] [mg/kg/day]	MTD at 168 h [4] [mg/kg/day]	inhibition in vivo at 0.09 mg/kg [3, 7] [%]	other results
O=NN(CCCl)C(=O)NC1O[C@H](CO)[C@@H](O)[C@H](O)[C@@H]1O (stereo partly drawn) [1-(2-chloroethyl)-1-nitroso-3-(D-mannopyranosyl)urea]	–	–	–	–	–	–	–	–	–	–	–	–	–	–	–	–	–	–	–	life span of mice implanted with L-1210 [1]: increase the life span
COCCN(C(=O)N(CCCl)N=O)C1O[C@H](CO)[C@@H](O)[C@H]1O (stereo partly drawn) [Compound 9, 1-(2-chloroethyl)-1-nitroso-3-(2-methoxyethyl)-3-(D-ribofuranosyl)urea]	> 243	> 414	> 757	> 757	25	50	100	100	3/5	64	20	62	100	100	100	100	0.78	50	–	ILS at 1.56 mg/kg [2]: 40%; responders at 1.56 mg/kg [2]: 0%
O=NN(CCCl)C(=O)NC1O[C@H](CO)[C@@H](O[C@@H]2O[C@H](CO)[C@H](O)[C@H](O)[C@H]2O)[C@H](O)[C@H]1O (stereo partly drawn) [1-(2-chloroethyl)-1-nitroso-3-(D-lactosyl)urea]	–	–	–	–	–	–	–	–	–	–	–	–	–	–	–	–	–	–	–	anti-tumor activity against leukemic cells [5]: show anti-tumor activity
COCCCN(C(=O)N(CCCl)N=O)C1O[C@H](CO)[C@@H](O)[C@H](O)[C@H]1O (stereo partly drawn) [Compound 12, 1-(2-chloroethyl)-1-nitroso-3-(3-methoxy-n-propyl)-3-(D-glucopyranosyl)urea]	–	–	> 304	> 757	–	0	25	100	–	32	–	10	34	100	–	–	3.12	100	–	Toxic (number of mice died/number of mice used) ([3]; 200 mg/kg/day i.p., once a day for 5 days): 5/5; inhibition in vivo at 1.56 mg/kg ([3]; Mus musculus, Ehrlich, ip, 168 h, 1.56 mg/kg/day i.p., once a day for 5 days, read-out: Inhibition ratio): 90%; inhibition in vivo at 6.25 mg/kg ([3]; Mus musculus, Ehrlich, ip, 168 h, 6.25 mg/kg/day i.p., once a day for 5 days, read-out: Inhibition ratio): 100%; inhibition in vivo at 25 mg/kg ([3]; Mus musculus, Ehrlich, ip, 168 h, 25 mg/kg/day i.p., once a day for 5 days, read-out: Inhibition ratio): 100%; inhibition in vivo at 100 mg/kg ([3]; Mus musculus, Ehrlich, ip, 168 h, 100 mg/kg/day i.p., once a day for 5 days, read-out: Inhibition ratio): 100%
COC(C)CN(C(=O)N(CCCl)N=O)C1OC[C@H](O)[C@H](O)[C@H]1O (stereo partly drawn) [Compound 5, 1-(2-chloroethyl)-1-nitroso-3-(2-methoxy-n-propyl)-3-(L-arabinopyranosyl)urea]	91.7	> 529	> 733	> 678	0	75	100	75	4/5	128	36.7	100	100	100	100	100	0.39	50	8.2	increase in the average life span ([2]; daily dose 0.5 mg/kg i.p.): about 30%
O=NN(CCCl)C(=O)N[C@@H]1O[C@H](CO)[C@@H](O)[C@H](O)[C@H]1O [GANU, 1-(2-chloroethyl)-1-nitroso-3-(D-glucopyranosyl)urea, reference compound]	–	–	–	–	–	–	–	–	–	–	79.2	100	100	100	–	–	–	12.5	4.2	life span of mice implanted with L-1210 [1]: increase the life span; Toxic (number of mice died/number of mice used) ([3]; 25 mg/kg/day i.p., once a day for 5 days): 5/5; inhibition in vivo at 1.25 mg/kg ([3]; Mus musculus, Ehrlich, ip, 168 h, 1.25 mg/kg/day i.p., once a day for 5 days, read-out: Inhibition ratio): 100%
COCC(C)N(C(=O)N(CCCl)N=O)C1OC[C@H](O)[C@H](O)[C@H]1O (stereo partly drawn) [Compound 6, 1-(2-chloroethyl)-1-nitroso-3-(1-methyl-2-methoxy-ethyl)-3-(L-arabinopyranosyl)urea]	> 270	> 722	> 722	–	–	100	100	–	5/5	64	63.2	92.1	100	100	100	100	0.78	50	15.8	ILS at 1.56 mg/kg [2]: 57.5%; responders at 1.56 mg/kg [2]: 0%; increase in the average life span ([2]; daily dose 0.45 mg/kg i.p.): about 30%
COCCCN(C(=O)N(CCCl)N=O)C1OC[C@H](O)[C@H](O)[C@H]1O (stereo partly drawn) [Compound 4, 1-(2-chloroethyl)-1-nitroso-3-(3-methoxy-n-propyl)-3-(L-arabinopyranosyl)urea]	97.2	> 324	> 733	> 733	0	33.3	100	100	2/5	128	44.9	100	100	100	100	100	0.39	50	18.4	therapeutic index (M.T.D./M.E.D.) relative to that of GANU ([3]; Ehrlich ascites tumor, greater than that of GANU): 4 times
COCCN(C(=O)N(CCCl)N=O)C1OC[C@H](O)[C@H](O)[C@H]1O (stereo partly drawn) [Compound 3, 1-(2-chloroethyl)-1-nitroso-3-(2-methoxyethyl)-3-(L-arabinopyranosyl)urea]	87.5	> 556	> 733	> 615	0	66.7	100	83.3	3/5	128	55.6	100	100	100	100	100	0.39	50	13.5	–
